Test results from PMC4528135, “Kinetic Investigations of the Role of Factor Inhibiting Hypoxia-inducible Factor (FIH) as an Oxygen Sensor” (The Journal of Biological Chemistry, 2015).
Read-outs that look alike come from different tables or passages of the source.

B1: HIF-1α(344–503) NODD protein: recombinant HIF-1α(344–503) NODD protein, longer PHD2 substrate (protein, UniProt Q16665 344-503, looked up, fragment)
chain: GIIQHDLIFSLQQTECVLKPVESSDMKMTQLFTKVESEDTSSLFDKLKKEPDALTLLAPAAGDTIISLDFGSNDTETDDQQLEEVPLYNDVMLPSPNEKLQNINLAMSPLPTAETPKPLRSSADPALNQEVALKLEPNPESLELSFTMPQIQDQTPSPSD

How the values were obtained:
Format in all cases: biochemical
FIH [1] = biological target: T1, FIH (Homo sapiens, UniProt Q9NWT6); assay: Rapid quench-flow, FIH pre-steady-state product and succinate formation; conditions: for Rapid quench-flow kproduct / Rapid quench-flow ksuccinate: 0.5 mM apo-FIH, 0.4 mM Fe(II), 5 mM 2OG, 1 mM substrate, 50 mM HEPES pH 7.5, O2-saturated buffer 1:1, 5 °C, quenched with 1% CF3CO2H; for Rapid quench-flow kproduct: hydroxylation by MALDI-TOF-MS, 1–3 separate experiments; for Rapid quench-flow ksuccinate: succinate by LC-MS
T1 construct: Full-length recombinant FIH, two- and three-consensus ankyrin repeats (2CA and 3CA) were produced as described; His6 (cleaved yes); made in house; host or cells: Escherichia coli BL21(DE3)
Experimental: Rapid quench-flow experiments were performed using the same conditions and preparation of the assay mixture as used in stopped-flow experiments. Rapid quench-flow equipment (TgK Scientific Ltd.) in an anaerobic glove box was used for the experiments. Samples were quenched with 1% CF3CO2H and analyzed using MALDI-TOF-MS (peptide hydroxylation) as described above or liquid chromatography-mass spectrometry (LC-MS, for succinate production). For LC-MS, chromatographic separation was performed at 50 °C using a Waters ACQUITY BEH Amide 1.7-μm, 2.1 × 100-mm column on a Waters ACQUITY^TM ultraperformance liquid chromatography system (Waters Corp., Milford, MA). The following eluents were used: mobile phase A: 10% H2O, 90% acetonitrile (v/v), 10 mM ammonium formate; mobile phase B: 50% H2O, 50% acetonitrile (v/v), 10 mM ammonium formate. The elution gradient was 0–7.0 min linear from 10 to 30% B, and 7.0–9.0 min at 10% B for re-equilibration of the column. A constant flow rate of 0.4 ml/min was used. Analytes were detected in negative ionization mode using single reaction monitoring on a Quattro triple quadrupole mass spectrometer (Waters) with a cone voltage of 15 V and a capillary voltage of 3.0 kV. The desolvation temperature was set to 250 °C, and the source temperature was set to 120 °C.
FIGURE 9. Rapid quench-flow experiments showing FIH-catalyzed hydroxylation of HIF-1/2α CAD and ARD substrates. Reaction mixtures containing anaerobic 0.5 mM apo-FIH, 0.4 mM Fe(II), 5 mM 2OG, 1 mM peptide in HEPES 50 mM (pH 7.5) were rapidly mixed with O2-saturated buffer at 5 °C in a 1:1 ratio and then quenched with 1% CF3CO2H at defined time points. The data were fitted with the function, y = a·(1 − exp(−bx)) + c. Hydroxylation levels were assessed by MALDI-TOF-MS. A, hydroxylation of HIF-1α CAD, 1CA, and tankyrase-1 peptide substrates (19- and 20-mers); B, hydroxylation of HIF-1α, HIF-2α, and tankyrase-1 35-mer peptide substrates; C, hydroxylation of 1CA, 2CA, and 3CA. Data plotted were cumulatively acquired over the course of 1–3 separate experiments.

FIH [2] = biological target: T1, FIH; assay: O2 dependence of FIH-catalyzed hydroxylation (hypoxia workstation); conditions: FIH with the named substrate; 5 μM FIH, 500 μM peptide, 50 μM Fe(II), 1 mM 2OG, 1 mM L-ascorbate, 50 mM HEPES pH 7.5, 37 °C, hypoxia workstation at different pO2; triplicate assays
Experimental: (§1) The O2 dependence of FIH-catalyzed reactions was determined by conducting enzymatic assays in an “In vivo 500 Hypoxia Workstation” (Ruskinn) using buffers pre-equilibrated under different pO2 values for 24 h. The O2 dependence of PHD2-catalyzed reactions was determined by conducting enzymatic assays in sealed glass vials with variable N2/O2 contents ([42]). Reactions were stopped by spotting samples onto a matrix-assisted laser desorption/ionization-time of flight mass spectrometry (MALDI-TOF-MS) target plate and immediately mixing with α-cyano-4-hydroxycinnamic acid matrix. Hydroxylation levels were assessed by MALDI-TOF-MS as described ([46]).
FIGURE 4. O2 dependence of FIH- and PHD2-catalyzed hydroxylation of HIF-1/2α. A, O2 dependence of PHD2-catalyzed hydroxylation of HIF-1/2α CODD/NODD 19-mer peptides. 4 μM PHD2, peptide (varied), 50 μM Fe(II), 2OG (varied), 4 mM L-ascorbate in HEPES 50 mM (pH 7.5) were incubated at 37 °C. The different O2 levels were maintained using mass flow controllers ([42]), and the hydroxylation levels were analyzed by MALDI-TOF-MS. B, O2 dependence of FIH-catalyzed hydroxylation of CAD HIF-1/2α 35-mer peptides. Conditions were as follows. 5 μM FIH, 500 μM peptide, 50 μM Fe(II), 1 mM 2OG, 1 mM L-ascorbate in HEPES 50 mM (pH 7.5) were incubated at 37 °C in a hypoxia work station under different pO2. […] Error bars, S.D. of triplicate assays.
FIGURE 8. Time course and O2 dependence of the FIH-catalyzed hydroxylation of HIF-α CAD and ARD substrates. Conditions were as follows. 5 μM FIH, 500 μM peptide, 50 μM Fe(II), 1 mM 2OG, 1 mM L-ascorbate in HEPES 50 mM (pH 7.5) were incubated at 37 °C. For O2 dependence studies, reactions were carried out in a hypoxic work station under different pO2 (assays at >20% O2 conducted using mass flow controllers ([42])). The different hydroxylation levels were analyzed by MALDI-TOF-MS or by LC-MS (for 2CA and 3CA). […] Error bars, S.D. of triplicate assays. A, time course of consensus ARD substrate hydroxylation (tankyrase-1 (tnkrs-1 20-mer and 35-mer) and one-consensus ankyrin repeat 20-mer (1CA)). B, time course of ARD peptide hydroxylation (one-consensus ankyrin repeat 20-mer (1CA), two ankyrin repeats (2CA), and three ankyrin repeats (3CA)). C, O2 dependence of HIF-1/2α CAD, 1CA, and tnkrs-1_35-mer hydroxylation. D, O2 dependence of 1CA, 2CA, and 3CA hydroxylation.

FIH [3] = biological target: T1, FIH; assay: Stopped-flow UV-visible spectroscopy, FIH·Fe(II)·2OG·substrate + O2; conditions: anaerobic 0.5 mM FIH, 1 mM substrate, 5 mM 2OG, 0.4 mM Fe(II), 50 mM HEPES pH 7.5, mixed 1:1 with O2-saturated buffer at 5 °C; double exponential fit
Experimental: (§2) Stopped-flow UV-visible spectroscopy experiments were performed as described previously ([32], [42]). Anerobically prepared assay mixtures containing 0.5 mM apo-FIH, 1 mM substrate, 5 mM 2OG, 0.4 mM Fe(II) or 0.8 mM apo-PHD2, 1 mM substrate, 5 mM 2OG, 0.5 mM Fe(II) were rapidly mixed with O2-free/O2-saturated buffer. The reaction was observed over 1000 s using a photodiode array detector, and kinetic traces were analyzed using Origin version 8.51 software. Data were fitted with a double exponential function (y = A1 × exp(−kriset) + A2 × exp(−kfallt) + y0). The A1, A2, and y0 parameters were restricted with upper limits to match the observed amplitude/offset changes.
Kinetic traces were fitted using a double exponential function; the fitting parameters of intermediate formation and decay are summarized in Table 3.
FIGURE 10. Stopped-flow UV-visible absorbance changes upon FIH-catalyzed hydroxylation of HIF-1/2α CAD and ARD substrates. Reaction mixtures containing anaerobic 0.5 mM apo-FIH, 0.4 mM Fe(II), 5 mM 2OG, and 1 mM peptide in HEPES 50 mM (pH 7.5) were rapidly mixed with O2-saturated buffer at 5 °C in 1:1 ratio and analyzed using a photodiode array detector. The data were fitted with a double exponential function. A, decay at 500 nm (representing enzyme·substrate complex depletion) observed upon FIH-catalyzed hydroxylation of ARD substrates compared with HIF-1/2α CAD. B, formation and degradation of 310 nm species observed upon FIH-catalyzed HIF-1/2α CAD and ARD hydroxylation. C, decay at 500 nm observed upon FIH-catalyzed hydroxylation of 1CA, 2CA, and 3CA substrates.

FIH [4] = biological target: T1, FIH; assay: Steady-state kinetics of FIH-catalyzed peptide/protein hydroxylation (MALDI-TOF-MS or LC-MS); conditions: 50 μM Fe(II), 1 mM L-ascorbate, 50 mM HEPES pH 7.5, 37 °C; for Km: 0.1–5 μM FIH, MALDI-TOF-MS (LC-MS for 2CA, 3CA), triplicate assays
Experimental: Enzymatic assays were conducted as described ([46], [47]). Unless otherwise stated, the assay mixture typically contained 5 μM FIH, 500 μM substrate, 500 μM 2OG, 1 mM L-ascorbate, and 50 μM Fe(NH4)2(SO4)2 or 4 μM PHD2, 100 μM substrate, 300 μM 2OG, 4 mM L-ascorbate, and 50 μM Fe(NH4)2(SO4)2. For HIF-1α CODD19-mer, the background levels of methionine oxidation resulting from assay conditions were subtracted based on non-enzymatic controls ([48]).
as §1
Samples obtained from FIH kinetic assays with 2CA and 3CA were diluted to a substrate concentration of 5 μM and then analyzed using a Waters® LCT Classic mass spectrometer by electrospray ionization in positive ion mode. An Agilent HP1100 LC system was used, and samples were run through a Phenomenex® Aeris Widepore 3.6-μm XB-C8 150 × 2.1-mm column at 0.5 ml/min in a gradient of phase A (95% H2O, 5% CH3CN, 0.01% formic acid) to phase B (95% CH3CN, 5% H2O, 0.01% formic acid). The LC/MS used the following method: 0–1.5 min, 100% A and then 1.5–12 min linear gradient from 0 to 100% B, 12–14 min 100% B, and 15.0–19.0 min 100% A for re-equilibration of the column. Data were collected and analyzed using MassLynx version 4.0.

PHD2 = biological target: T2, PHD2 (Homo sapiens, UniProt Q9GZT9); assay: Stopped-flow UV-visible spectroscopy, PHD2·Fe(II)·2OG·substrate + O2; conditions: anaerobic 0.8 mM PHD2, 1 mM peptide, 5 mM 2OG, 50 mM HEPES pH 7.5, mixed 1:1 with O2-saturated buffer at 5 °C; double exponential fit; traces average of triplicate
T2 construct: The catalytic domain of PHD2 (residues 181–426) was purified as described; made in house
Experimental: as §2, with “Anerobically prepared assay mixtures containing 0.5 mM apo-FIH, 1 mM substrate, 5 mM 2OG, 0.4 mM Fe(II) or 0.8 mM apo-PHD2, 1 mM substrate, 5 mM 2OG, 0.5 mM Fe(II) were rapidly mixed with O2-free/O2-saturated buffer.” left out
Previously reported pre-steady-state kinetic studies on PHD2 focused on its reaction with CODD HIF-1α 19-mer peptide ([38], [42]); there is no reported information on the rates of PHD2 reaction with O2 in the presence of NODD HIF-1α or HIF-2α substrates. To ascertain whether a slow reaction with O2 under pre-steady-state conditions is common to PHD2-catalyzed hydroxylation of both CODD and NODD, we investigated the reaction of PHD2 with NODD substrates in comparison with CODD for both HIF-1α and HIF-2α. Pre-steady-state reactions of PHD2 were initiated by rapid mixing of anaerobic PHD2·Fe(II)·2OG·HIF-α complexes with O2-saturated buffer at 5 °C. Reactions were initially observed using a photodiode array detector, and difference spectra (in comparison with the reaction with O2-free buffer) were subsequently analyzed.
FIGURE 5. Pre-steady-state kinetics of PHD2-catalyzed HIF-1/2α hydroxylation. […] B, stopped-flow kinetic traces at 520 nm showing absorbance changes in control experiments: Fe(II) only, mix of Fe(II) and 2OG, reaction of PHD2·Fe(II)·2OG complex with O2 in the absence of CODD; reaction of PHD2·Fe(II)·N-oxalylglycine (NOG)·CODD complex with O2. N-Oxalylglycine is an inhibitor of 2OG oxygenases. […] The kinetic traces represent the average of triplicate assays. E, HIF-1/2α peptide hydroxylation, as determined by MALDI-TOF-MS. Reactions were quenched with 1% CF3CO2H at defined time points.

T1 sequence (Q9NWT6 whole entry): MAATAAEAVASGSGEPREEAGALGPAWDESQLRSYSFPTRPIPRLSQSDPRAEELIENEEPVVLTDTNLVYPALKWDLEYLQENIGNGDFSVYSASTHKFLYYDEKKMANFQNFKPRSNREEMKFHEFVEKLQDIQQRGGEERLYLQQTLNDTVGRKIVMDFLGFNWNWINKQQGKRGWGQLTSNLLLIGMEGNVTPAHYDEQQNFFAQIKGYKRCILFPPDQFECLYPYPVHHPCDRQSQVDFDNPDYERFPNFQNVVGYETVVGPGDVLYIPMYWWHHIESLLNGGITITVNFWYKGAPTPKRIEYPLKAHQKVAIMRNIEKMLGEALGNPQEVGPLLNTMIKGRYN
T2 sequence (Q9GZT9 181-426): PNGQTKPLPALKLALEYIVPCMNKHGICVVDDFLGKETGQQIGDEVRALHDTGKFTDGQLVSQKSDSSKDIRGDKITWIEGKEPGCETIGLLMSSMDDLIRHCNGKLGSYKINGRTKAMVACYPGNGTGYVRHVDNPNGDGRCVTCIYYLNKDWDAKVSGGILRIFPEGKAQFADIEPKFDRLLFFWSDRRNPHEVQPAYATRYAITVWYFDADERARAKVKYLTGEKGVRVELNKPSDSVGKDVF

Molecule	Rapid quench-flow kproduct (FIH [1]) [s⁻¹]	Rapid quench-flow ksuccinate (FIH [1]) [s⁻¹]	Km^app(O2) (FIH [2])	product accumulation rate, fold faster than the reaction with HIF 35-mer substrates (FIH [1]; rapid quench-flow, 5 °C) [fold]	Stopped-flow, 500 nm (FIH) kfall phase (FIH [3]) [s⁻¹]	Stopped-flow, 500 nm (FIH) krise phase (FIH [3]) [s⁻¹]	Km (FIH [4]; FIH with the named substrate, 2OG varied, read-out: Km^app(2OG)) [µM]	kcat^app (FIH [4]; FIH, MALDI-TOF-MS or LC-MS) [s⁻¹]	Km (FIH [4]; FIH, substrate varied, 2OG fixed, read-out: Km^app(peptide)) [µM]	Stopped-flow, 520 nm (PHD2) kfall phase (PHD2)
DESGLPQLTSYDCEVNAPI [CAD HIF-1α19-mer]	0.013 ± 0.003	0.016 ± 0.004	no difference	–	–	–	–	–	–	–
NLEVAEYLLEHGADVNAQDK [tnkrs-1_20-mer, 20-mer fragment of tankyrase-1, ARD substrate of FIH]	1.5 ± 0.1	1.0 ± 0.3	–	~10	16.7 ± 0.2	0.4 ± 0.2	370 ± 120	0.8 ± 0.1	78 ± 11	–
B1	–	–	–	–	–	–	–	–	–	same kinetics
